Measured values as given in article PMC12194779, “Synergistic Insecticidal Activity of Plant Volatile Compounds: Impact on Neurotransmission and Detoxification Enzymes in Sitophilus zeamais” (Insects, 2025).
Several values for one entry are separate records, joined by “and”; a condition that tells them apart may be missing. Equal values may be shown once.

Columns and labels:
S. zeamais = test system: S. zeamais; design: method as in PMID 21173724, PMID 22236213; conditions: cited from earlier work
Sitophilus zeamais [1] = assay type: in vivo; conditions: for Contact Toxicity LD50 (95% FL) / Contact Toxicity LD90 (95% FL): topical, 24 h after exposure; for Contact Toxicity LD50i (LC-95%): mixtures and their components (Table 3)
Protocol: (§1) The insects used in this study were Sitophilus zeamais Motschulsky (Coleoptera: Curculionidae), identified by the Instituto Colombiano Agropecuario (ICA) under report number R3823M0000425. […] The adult insects used in all the experiments were 6 to 10 days post-emergence.
Groups of 10 insects, previously placed in Petri dishes, were immobilized by exposure to low temperatures (0 °C). An initial dose of 50.0 µg per adult was applied topically to the dorsal thorax of each insect using aliquots of 0.20 µL from 0.25 mg/µL solutions in n-hexane. […] All treatments were performed in two independent experiments, each with four replicates. Insect mortality was assessed after 24 h, and mortality percentages were calculated using Abbott’s correction formula (Equation (1)).
(§2) Mixtures predicted by the RSM were prepared based on mole fractions. […] Four replicates were performed for each treatment and control across two independent experimental runs.
(§3) Dose reduction indices (DRIs) were also calculated to estimate how much the dose of each compound in a synergistic combination could be reduced to achieve a 50% effect (Equation (4)). DRIs were interpreted as favorable when >1, neutral at 1, and unfavorable when <1.

Sitophilus zeamais [2] = assay: whole plant or invertebrate; conditions: Sitophilus zeamais, in Homo sapiens, 24 h
Protocol: as §1
The treated disks were affixed to the inner surface of the screw cap of 22 mL glass vials. […] All treatments were performed in two independent experiments, each with five replicates.
as §2
as §3, with “<1. Values above the log DRI = 0 line indicate favorable dose reductions.(4) (IRD)i=CL50i(fax)i/(1−(fax)i)^1/mi/(D)i” for “<1.”

[3] = design: method as in doi:10.1016/B978-0-12-819092-0.00021-2; conditions: oral; cited from earlier work
AChE of S. zeamais = assay: AChE activity assay (modified Ellman) with S. zeamais protein extract; assay type: biochemical, Sitophilus zeamais; design: key to AChE Effect Inhibitor Type: C: competitive inhibitor; NC: non-competitive inhibitor; conditions: for AChE Effect Inhibitor Type: Lineweaver–Burk; for AChE Effect IC50 ± SD / Ki: S. zeamais protein extract; for Ki: read-out: AChE Effect ki ± SD (inhibitory constant)
Protocol: The compounds and mixtures evaluated in the in vitro assays were prepared in the same buffer supplemented with 0.5% (v/v) Triton X-100 (Sigma-Aldrich®, Saint Louis, MO, USA).
The supernatant was filtered, and 20 mM benzamidine was added. The extracts were stored in 5 mL aliquots at −20 °C. Preliminary assays were performed to quantify the specific activity of AChE (0.02–1.00 U/mL), GST (0.1–0.8 U/mL), and CAT (0.1–25 U/mL), and to optimize assay conditions (enzyme dilution: 1/8 to 1% v/v; substrate concentrations: 2 × km or within assay linearity).
Then, 50 µL of DTNB and 50 µL of ATChI were added. […] Inhibition percentages were calculated using Equation (5).

[4] = test system: glutathione S-transferase (GST) activity in S. zeamais; assay: GST activity assay (modified Habig) with S. zeamais protein extract; assay type: biochemical, Sitophilus zeamais; conditions: 120 mg/L
Protocol: (§4) Enzymatic assays were performed in the assay buffer, consisting of 0.1 M potassium phosphate buffer (pH 7.2). The compounds and mixtures evaluated in the in vitro assays were prepared in the same buffer supplemented with 0.5% (v/v) Triton X-100 (Sigma-Aldrich®, Saint Louis, MO, USA).
(§5) A modified version of the method described by Oviedo et al. was used. Adults of S. zeamais (8 g; ~3125 insects) were frozen in liquid nitrogen, homogenized in a 1:10 ratio with assay buffer, and centrifuged at 13,000× g for 60 min at 4 °C. The supernatant was filtered, and 20 mM benzamidine was added. The extracts were stored in 5 mL aliquots at −20 °C. Preliminary assays were performed to quantify the specific activity of AChE (0.02–1.00 U/mL), GST (0.1–0.8 U/mL), and CAT (0.1–25 U/mL), and to optimize assay conditions (enzyme dilution: 1/8 to 1% v/v; substrate concentrations: 2 × km or within assay linearity). Each experiment was performed independently three times, with three technical replicates per experiment.
A modified version of Habig’s method was used. The protein extract (50 µL; 0.59 U/mL) was incubated with 50 µL of the compound or mixture (120 mg/L), followed by 50 µL each of CDNB and reduced glutathione (GSH). Kinetic absorbance was measured at 340 nm for 8 min. Blanks (without substrate) and quercetin (positive control) were included. Inhibition (%) was calculated using Equation (5), and treatment differences were evaluated via parametric ANOVA (α = 0.05) in GraphPad Prism 8.0.2 [42, 43]. Each experiment was performed independently three times, with three technical replicates per experiment.(5) % Inhibition=1−Am−AB/AC ×100 where Am is the absorbance of the sample, AB is the absorbance of the blank, and AC is the absorbance of the negative control.

[5] = test system: catalase (CAT) activity in S. zeamais; assay: CAT activity assay (adapted Sinha) with S. zeamais protein extract; assay type: biochemical, Sitophilus zeamais; conditions: 120 mg/L
Protocol: as §4, §5
Sinha’s method was adapted. In Eppendorf tubes, 100 µL of protein extract (24.77 U/mL) was mixed with 100 µL of the compound or mixture (120 mg/L) and incubated at 37 °C for 15 min. Then, 200 µL of H2O2 was added and shaken for 2.5 min. The reaction was stopped by adding 600 µL of K2Cr2O7, followed by incubation at 100 °C for 10 min. A 200 µL aliquot was transferred to a 96-well plate, and absorbance was recorded at 570 nm. Blanks and sodium azide (positive control) were used. The percentage of inhibition was calculated using Equation (5). Differences among treatments were analyzed via ANOVA (α = 0.05) in GraphPad Prism. Each experiment was performed independently three times, with three technical replicates per experiment.

[6] = cited from earlier work
[7] = test system: CAT activity in S. oryzae; design: method as in PMID 31027573; conditions: cited from earlier work

## CCCCCCCCC [Compound C20, n-Nonane]
S. zeamais
  Contact LD50 previously reported for 7-day assays: 17.62 µg/adult
Sitophilus zeamais [1]
  Contact Toxicity LD50 (95% FL): 21.42 µg/Adult
Sitophilus zeamais [2]; read-out: Fumigant Toxicity LC50 (95% FL)
  LC50: 109 µg/mL and 851 µM
Sitophilus zeamais [2]; read-out: Fumigant Toxicity LC90 (95% FL)
  EC90: 172 µg/mL and 1.34 mM

## Cc1ccc(C(C)C)cc1O [Compound C25, Carvacrol]
Sitophilus zeamais [1]
  Contact Toxicity LD50i (LC-95%): 8.71 µg/Adult
  Contact Toxicity LD90 (95% FL): 13.45 (12.19–15.38) µg/Adult
[3]
  oral LD50: 2462.23 mg/kg
AChE of S. zeamais; 120 mg/L
  AChE inhibition: 46.85%
[4]
  GST Inhibition λ340 (%): 19.3%

## C=CCc1ccc(O)c(OC)c1 [Compound C26, Eugenol]
Sitophilus zeamais [1]
  Contact Toxicity LD50i (LC-95%): 20.90 µg/Adult
  Contact Toxicity LD50 (95% FL): 20.9 (19.22–22.65) µg/Adult
  Contact Toxicity LD90 (95% FL): 30.82 (28.35–34.42) µg/Adult
[4]
  GST Inhibition λ340 (%): 24.3%
[5]
  CAT Inhibition λ570 nm (%): 19.9%

## C/C=C/c1ccc(OC)cc1 [Compound C29, trans-Anethol]
Sitophilus zeamais [1]
  Contact Toxicity LD90 (95% FL): 46.08 (41.56–52.95) µg/Adult
AChE of S. zeamais
  AChE inhibition type (Lineweaver–Burk plots), in words: competitive inhibition
  AChE Effect Inhibitor Type: C
  AChE Effect IC50 ± SD: 4.24 ± 0.36 µg/mL
  Ki: 43.6 ± 3.46 µM
AChE of S. zeamais; ratio of IC50
  AChE potency, times more potent than isomer estragole (C11): 6.5 times
[4]
  GST Inhibition λ340 (%): ~ 17.5% and 17.5%
[5]
  CAT Inhibition λ570 nm (%): 23.3%

## CC(C)=CCC[C@@H](C)CC=O [Compound C33, Citronellal]
S. zeamais
  Contact LD50 previously reported for 7-day assays: 8.54 µg/adult
Sitophilus zeamais [1]
  Contact Toxicity LD50i (LC-95%): 36.94 µg/Adult
  Contact Toxicity LD50 (95% FL): 36.94 (34.60–39.14) µg/Adult
  Contact Toxicity LD90 (95% FL): 50.64 (47.46–55.39) µg/Adult
AChE of S. zeamais
  AChE inhibition type (Lineweaver–Burk plots), in words: competitive inhibition
  AChE Effect Inhibitor Type: C
  AChE Effect IC50 ± SD: 7.72 ± 0.78 µg/mL
  Ki: 199 ± 3.51 µM
[4]
  GST Inhibition λ340 (%): 4.3%

## CC1(C)[C@H](C(=O)O[C@H](C#N)c2cccc(Oc3ccccc3)c2)[C@@H]1C=C(Br)Br [deltamethrin]
[6]; 1 ppm, after 14 days
  mortality: 45%

## CC(C)[C@@H]1CC[C@@H](C)CC1=O [menthone]
[7]
  reduction of CAT activity: ~ 30%

## CC1(C)C(C=C(Cl)Cl)C1C(=O)OCc1cccc(Oc2ccccc2)c1 (stereo not shown) [permethrin]
[6]
  reported LD50: 42.75 µg/adult
